Common to all, as to experiment: growth of human tumour cells (NCI), 48 h
In test [1] the test system is CAKI-1 renal.
Test [2] has as its system HCT-116 colon.
Test [3] relates to MCF7 breast.
Test [4] deals with MOLT-4 leukemia.
Test [5] concerns NCI-H23 lung.
The test system of test [6] is NCI-H460 lung.
Test [7] relates to SK-MEL-5 melanoma.
The subject of test [8] is SK-OV-3 ovarian.
Test [9] has as its system U251 CNS.
Test [10] has as its system UACC-257 melanoma.

Several values for one entry are separate records, joined by “and”; a condition that tells them apart may be missing. Equal entries are not always repeated.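 Test compounds were applied to cells in 96-well plates for 48 hours at 5 doses. Abbreviation: GI50, concentration required for 50% inhibition of growth. TGI is the concentration that stops growth completely.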

Consider `CCNc1nc(N2CC(=O)Nc3cc(OC)ccc32)c2ccccc2n1`, for which the GI50 was 0.0022 µM in [1]; 0.000361 µM in [2]; 0.000369 µM in test [3]; 0.000472 µM in test [4]; 0.000554 µM in [5]; 0.000365 µM in test [6]. In addition, the figures for the GI50 in [7], in [8] and in test [9] were 0.000456 µM, 0.000483 µM and 0.000437 µM, respectively. Further, the TGI in test [1], in test [2], in [3], in test [4], in test [5] and in test [6] was over 100 µM each time. Moreover, the TGI in test [7] was 0.00337 µM; in test [8], 0.0134 µM; in test [9], over 100 µM.

Take `C[C@]12CCC(=O)C=C1CC[C@@H]1[C@@H]2CC[C@]2(C)C(=O)/C(=C/c3cccc(OCCN4CCOCC4)c3)C[C@@H]12`: the GI50 is 11.9 µM in test [1]; 3.14 µM in test [2]; 9.11 µM in test [3]; 3.79 µM in [5]; 7.11 µM in [6]; 4.17 µM in [7]. Besides, the figures for the GI50 in test [8], in test [9] and in [10] were 11.7 µM, 8.5 µM and 6.13 µM, respectively. Further, the TGI turned out to be 48.3 µM in test [1]; 13.4 µM in test [2]; 71.7 µM in test [3]; 20.6 µM in [5]; 30.1 µM in test [6]; 15.7 µM in test [7]. For the same molecule, the TGI is over 100 µM in test [8], 24.9 µM in [9] and 19 µM in test [10].

With `COC(=O)[C@@H](C)C[C@H](Cc1ccccc1)NC(=O)c1csc([C@@H](C[C@H](C(C)C)N(C)C(=O)[C@@H](NC(=O)[C@H]2CCCCN2C)C(C)C)OC(C)=O)n1`, the TGI in [2] was over 25 µM; in test [3], over 25 µM; in [4] it was over 25 µM; in [5] it was over 25 µM; in [6], over 25 µM; in [7] it was 0.00301 µM and < 0.0025 µM. Moreover, the TGI in test [8] and in [9] was over 25 µM throughout. Besides, the GI50 in [4] was 0.0005 µM and 0.0025 µM; in test [5], 0.000395 µM and 0.0025 µM; in test [7] it was under 0.0001 µM; in [9], 0.000396 µM and 0.0025 µM.

With `COC1CC2CCC(C)[C@](O)(O2)C(=O)C(=O)N2CCCCC2C(=O)OC(C(C)CC2CCC(O)C(OC)C2)CC(=O)C(C)C=C(C)C(OC(=O)CN(C)C)C(OC)C(=O)C(C)CC(C)/C=C/C=C/C=C\1C` (some centres not stated), the TGI is 22.2 µM in test [2]; 17.6 µM in test [3]; 24.3 µM in test [5]; 21.7 µM in test [6]; 19.8 µM in test [7]; 20 µM in test [8]. For the same molecule, the TGI in test [9] was 18.2 µM; in test [10] it was 24.1 µM.

On to `CCN(CC)CCOc1cc2c(C(=O)OC)c(C)oc2cc1C(C)=O`, for which the GI50 in test [1] was 14.2 µM; in test [3], 22.8 µM; in [4], 3.02 µM; in [5] it was 11.8 µM; in test [6], 29.9 µM; in [7] it was 6.62 µM. In addition, the GI50 in test [8] was 14.7 µM; in test [9], 2.75 µM; in test [10], 13 µM. Also, the TGI in test [1] came out at 31.2 µM; in test [3], 45.2 µM; in [4] it was 7.5 µM; in [5], 27.7 µM; in test [6], 91.8 µM; in test [7], 19 µM. Further, the TGI worked out at 30.2 µM in test [8], 10.7 µM in test [9] and 31.7 µM in [10].

`C/C(=C\c1ccn(-c2ccc(N)cc2)n1)[C@@H]1C[C@@H]2O[C@]2(C)CCC[C@H](C)[C@H](O)[C@@H](C)C(=O)C(C)(C)[C@@H](O)CC(=O)O1`: the GI50 was 0.202 µM in [1]; 0.0189 µM in test [2]; 0.0152 µM in test [3]; 0.0486 µM in test [4]; 0.0594 µM in test [5]; 0.0202 µM in [6]. The GI50 was 0.0308 µM in test [7], 0.226 µM in test [8] and 0.0321 µM in test [9]. The TGI in [1], in test [2], in test [3], in test [4], in test [5] and in test [6] was over 50 µM throughout. For the same molecule, the TGI in [7], in [8] and in test [9] was over 50 µM throughout.

With `COc1ccc2c(c1)[n+]([O-])c(-c1nc3ccccc3s1)c(N)[n+]2[O-]`, the TGI in test [1], in [2], in test [4], in test [5], in test [6] and in [7] was over 100 µM each time. Moreover, the TGI in test [8], in test [9] and in [10] was over 100 µM throughout.

In the case of `O=C1C=CC2(C=C1)CCN=c1c(O)c3c(c(O)c12)=NC=N3`, the TGI in [1] was 27.5 µM and > 100 µM; in test [2], 22.5 µM and > 100 µM; in [3], 28.7 µM and > 100 µM; in test [4] it was over 100 µM; in test [5], 19.5 µM and > 100 µM; in test [6], 30 µM and > 100 µM. The TGI in [8] was 33.2 µM and > 100 µM; in [9] it was 24.1 µM and > 100 µM; in [10], 21.6 µM and > 100 µM. The GI50 in test [3] is 11.9 µM and > 100 µM; in test [4], 21.7 µM and > 100 µM; in [6], 12.2 µM and > 100 µM; in test [8] it was 18.3 µM and > 100 µM; in test [9] it was 10.6 µM and > 100 µM.

`CN1CCN(Cc2ccc(Nc3ncc(Cl)c(Nc4ccccc4S(=O)(=O)N(C)C)n3)cc2)CC1`: the GI50 in test [1] was 0.0377 µM; in test [2] it was under 0.0157 µM; in [3] it was under 0.01 µM; in [5], 0.0338 µM; in [6] it was under 0.0131 µM; in test [7] it was 0.0759 µM. In addition, the GI50 in [8] is 0.219 µM; in test [9], 0.038 µM; in [10] it was 0.0473 µM. The TGI in [1] is 1.09 µM; in test [3], 1.17 µM; in test [5], 0.358 µM; in test [6] it was 0.198 µM; in [7] it was 0.387 µM; in [8] it was over 100 µM. In addition, the results for the TGI in [9] and in [10] were 1.46 µM and 0.82 µM, respectively.
